The values that follow come from US20080089851A1, “Brown Algae Cell Lyophilisate, Method For The Obtention Thereof” (BIOTECHMARINE, priority 2005, published 2008).

Assay [1] deals with normal human keratinocytes. Nature of the assay: Transport of lipids (choline), normal human keratinocytes. Type of assay: cell-based. As to conditions: for Capture of [^3H]choline: DPA 1 mM. Here is the method: (§1) The obtained microsomes from human keratinocytes in culture were rinsed 3 times with 25 mM Tris buffer, then preincubated in 1 ml of the same buffer for 30 minutes at 37° C. This solution was then discarded and the microsomes were placed into the 25 mM Tris buffer containing [^3H] Choline with stirring in a water bath at 37° C. The capture of choline was stopped by addition of a lysis buffer containing (50 mM de Tris, 140 mM NaCl, 1.5 mM MgSO4, 0.5% Igepal-Ca-630, 0.2% SDS). The kinetics of incubation was performed between 30 and 120 seconds. Subsequently, the microsomes were rinsed 2 times with PBS then dissolved in NaOH (1M) at 4° C. over night. The radioactivity was determined with a scintillation counter.
7.2—Assessment of the Rate of Transport of Macromolecules at the Level of Normal Human Keratinocytes
The applied method was that of explants allowing to obtain, from a biopsy of human skin, keratinocytes in primary cultures. The assays were carried out on keratinocytes between the 2nd and the 4th passage in order to ensure a reproductibility between the different experiences.
The keratinocytes were divided into multiwell plates (6 wells) at a rate of 10^5 cells per well in 1 ml of culture medium […] supplemented with insulin and hydrocortisone. The cells were incubated in the presence and absence of the investigated product.
7.2.2—Transport of Lipids
(§2) The membrane microsomes were separated by differential centrifugation.
The same protocol of capture of [3H] choline was used for the determination of the speed of transport of choline (cf. 6.1.2)

The subject of assay [2] is microsomes of human keratinocytes. The experiment in a line: Transport of lipids (choline), direct treatment of isolated microsomes. Type of assay: biochemical. As to conditions: for Capture of [^3H]choline: DPA 1 mM.
From the text: 7.1—Assessment of the Rate of Transport of Macromolecules (Glucids, Lipids and Proteins) in a System of Isolated Microsomes. Direct Effect of the BB Product on Isolated Microsomes:
The microsomes of human keratinocytes form a membrane fraction obtained by high-speed differential centrifugation of a cell homogenate. This preparation of microsomes requires the addition of exogenous cofactors such as NADPH.
7.1.2—Transport of Lipids
as §1
The protein assay was carried out following the BRADFORD method. The increase in absorbance at 595 nm, determined with a spectrophotometer, is proportional to the protein concentration.

For assay [3], the system named is human keratinocytes in senescence. Nature of the assay: Transport of lipids (choline), human keratinocytes in senescence. The class given is cell-based. The settings on record: for Capture of [^3H]choline: DPA 1 mM. The procedure: as §1
(§3) 7.3—Assessment of the Rate of Transport of Macromolecules at the Level of Human Keratinocytes in Senescence
(§4) The senescence is a phenomenon of cellular aging, where the cells are arrested in the phase G1 of the cell cycle and never enter the synthesis phase leading to the cell division. Senescent cells are characterized by their slow metabolism at synthesis and transport of macromolecules levels.
(§5) The cells in culture deprived of serum stop their growth, but continue to progress through the cell cycle until they reach the phase G1.
The assays were performed on keratinocytes, between the 8th and the 10th passage, in order to ensure the presence of senescent cells at control cells level.
(§6) The keratinocytes were seeded in multiwell plates (6 wells) at a rate of 10^5 cells per well in 3 ml of culture medium […] supplemented with EGF, hydrocortisone, insulin and gentamicyn. Afterwards they are maintained for 5 days in incubator under CO2.
7.3.2—Transport of Lipids
as §2
The same protocol of capture of [3H] Choline was applied to the determination of the rate of transport of choline (cf. 6.1.2)

The test system of assay [4] is normal human keratinocytes. Nature of the assay: Transport of proteins (albumin), normal human keratinocytes. Type of assay: cell-based. As to conditions: for Capture of albumin-FITC: S.D. 6 mg/ml. The procedure:
The obtained microsomes from human keratinocytes in culture were rinsed 3 times with a buffer, afterwards pre-incubated in 1 ml of the same buffer for 30 minutes at 3° C. This solution was subsequently discarded and the microsomes were placed into the HBSS buffer containing albumin-FITC with stirring in a water bath at 37° C. The capture of albumin is stopped by addition of a Ringer's solution containing 122.5 mM NaCl; 5.4 mM KCl; 1.2 mM CaCl2; 0.8 mM MgCl2; 0.8 Na2HPO4; 0.2 NaHPO4; 5.5 mM glucose; 10 mM HEPES, pH 7,4. Afterwards, the microsomes were treated with Triton X-100 at (0.1% v/v in 3-(N-morpholino) propanesulfonic acid 20 mM, pH 7.4). The fluorescence was quantified with a spectrophotometer (excitation 480 nm: emission 520 nm). The kinetics of incubation was performed between 30 and 120 seconds. 7.2—Assessment of the Rate of Transport of Macromolecules at the Level of Normal Human Keratinocytes The applied method was that of explants allowing to obtain, from a biopsy of human skin, keratinocytes in primary cultures. The assays were carried out on keratinocytes between the 2nd and the 4th passage in order to ensure a reproductibility between the different experiences. The keratinocytes were divided into multiwell plates (6 wells) at a rate of 10^5 cells per well in 1 ml of culture medium […] supplemented with insulin and hydrocortisone. The cells were incubated in the presence and absence of the investigated product. 7.2.3—Transport of Proteins (Albumin) The assay was carried out in triplicate on normal human keratinocytes in culture. • Charge 1: negative control not receiving any product. • Charge 2: positive control (Nocodazole, 6 mg/ml) • Charge 3-5: treated receiving the investigated product (3 concentrations) • Charge 6-8: treated with Nocodazole, 6 mg/ml, and with the investigated product (3 concentrations) The treatment of keratinocytes with the BB product in the presence and absence of Nocodazole, 6 mg/ml, was carried out for 120 minutes at 37° C. The membrane microsomes were separated by differential centrifugation. The same protocol of capture of albumin-FITC was used for the determination of the rate of transport of albumin (cf. 3.1.4.2)

In assay [5] the test system is microsomes of human keratinocytes. Nature of the assay: Transport of proteins (albumin), direct treatment of isolated microsomes. The settings on record: for Capture of albumin-FITC: ND 6 mg/ml. Type of assay: biochemical. The procedure:
7.1—Assessment of the Rate of Transport of Macromolecules (Glucids, Lipids and Proteins) in a System of Isolated Microsomes. Direct Effect of the BB Product on Isolated Microsomes: The microsomes of human keratinocytes form a membrane fraction obtained by high-speed differential centrifugation of a cell homogenate. This preparation of microsomes requires the addition of exogenous cofactors such as NADPH. 7.1.3—Transport of Proteins (Albumin) The assay was performed in triplicate after the direct treatment of microsomes. • Charge 1: negative control not receiving any product • Charge 2: positive control (Nocodazole, 6 mg/ml) • Charge 3-5: treated receiving the investigated product (3 concentrations) • Charge 6-8: treated with Nocodazole 6 mg/ml, and with the investigated product (3 concentrations) The obtained microsomes from human keratinocytes in culture were rinsed 3 times with a buffer, afterwards pre-incubated in 1 ml of the same buffer for 30 minutes at 3° C. This solution was subsequently discarded and the microsomes were placed into the HBSS buffer containing albumin-FITC with stirring in a water bath at 37° C. The capture of albumin is stopped by addition of a Ringer's solution containing 122.5 mM NaCl; 5.4 mM KCl; 1.2 mM CaCl2; 0.8 mM MgCl2; 0.8 Na2HPO4; 0.2 NaHPO4; 5.5 mM glucose; 10 mM HEPES, pH 7,4. Afterwards, the microsomes were treated with Triton X-100 at (0.1% v/v in 3-(N-morpholino) propanesulfonic acid 20 mM, pH 7.4). The fluorescence was quantified with a spectrophotometer (excitation 480 nm: emission 520 nm). The kinetics of incubation was performed between 30 and 120 seconds. The treatment of microsomes with the BB product alone or in the presence of Nocodazole (ND) were carried out at the same time as the introduction of albumin-FITC into the incubation medium. The assay of proteins was performed following the BRADFORD method. The increase in absorbance at 595 nm is proportional to the concentration of proteins measured with a spectrophotometer.

Assay [6] relates to human keratinocytes in senescence. Nature of the assay: Transport of proteins (albumin), human keratinocytes in senescence. Type of assay: cell-based. The settings on record: for Capture of albumin-FITC: ND 6 mg/ml. The procedure:
The obtained microsomes from human keratinocytes in culture were rinsed 3 times with a buffer, afterwards pre-incubated in 1 ml of the same buffer for 30 minutes at 3° C. This solution was subsequently discarded and the microsomes were placed into the HBSS buffer containing albumin-FITC with stirring in a water bath at 37° C. The capture of albumin is stopped by addition of a Ringer's solution containing 122.5 mM NaCl; 5.4 mM KCl; 1.2 mM CaCl2; 0.8 mM MgCl2; 0.8 Na2HPO4; 0.2 NaHPO4; 5.5 mM glucose; 10 mM HEPES, pH 7,4. Afterwards, the microsomes were treated with Triton X-100 at (0.1% v/v in 3-(N-morpholino) propanesulfonic acid 20 mM, pH 7.4). The fluorescence was quantified with a spectrophotometer (excitation 480 nm: emission 520 nm). The kinetics of incubation was performed between 30 and 120 seconds.
as §3, §4, §5
The applied method allowed to obtain, from a human skin biopsy, primary cultures of keratinocytes. The assays were performed on keratinocytes, between the 8th and the 10th passage, in order to ensure the presence of senescent cells at control cells level.
as §6
7.3.3—Transport of Proteins (Albumin)
The assay was carried out in triplicate on human keratinocytes in senescence. • Charge 1: negative control not receiving any product. • Charge 2: positive control (Nocodazole, 6 mg/ml) • Charge 3-5: treated receiving the investigated product (3 concentrations) • Charge 6-8: treated with Nocodazole, 6 mg/ml, and the investigated product (3 concentrations)
The treatment of keratinocytes with the BB product in the presence and absence of Nocodazole, 6 mg/ml, was carried out for 120 minutes at 37° C. The membrane microsomes were separated by differential centrifugation.
The same protocol of capture of albumin-FITC was applied to determine the rate of transport of albumin (cf. 6.1.3)

Regarding `CN(C)CCOC(c1ccccc1)c1ccccc1` [DPA, Diphenhydramin], the “Capture of [^3H]choline” value in assay [1] (30 s) is on record as 92 pmol/mg proteins; in assay [1] (60 s) it was 115 pmol/mg proteins; in assay [1] (90 s), 143 pmol/mg proteins; in assay [1] (120 s) it was 156 pmol/mg proteins; in assay [2] (30 s), 74 pmol/mg proteins; in assay [2] (60 s) it was 105 pmol/mg proteins. For the same compound, the “Capture of [^3H]choline” value was 132 pmol/mg proteins in assay [2] (90 s); 142 pmol/mg proteins in assay [2] (120 s); 55 pmol/mg of proteins in assay [3] (30 s); 79 pmol/mg of proteins in assay [3] (60 s); 119 pmol/mg of proteins in assay [3] (120 s). Moreover, the “rate of transport of lipids (in words)” value in assay [1] (Diphenhydramin 1 mM alone) is given as “moderately inhibits”; in assay [2] (Diphenhydramin 1 mM alone) it was “strongly inhibits”; in assay [3] (Diphenhydramin 1 mM alone), “strongly inhibits”.
Consider `COC(=O)Nc1nc2ccc(C(=O)c3cccs3)cc2[nH]1` [ND, Nocodazole], for which the “rate of transport of proteins (in words)” value in assay [4] (Nocodazole 6 mg/ml alone) was “inhibits”; in assay [5] (Nocodazole 6 mg/ml alone), “strongly inhibits”; in assay [6] (Nocodazole 6 mg/ml alone), “inhibits”. Besides, the “Capture of albumin-FITC” value is 0.09 μg/mg proteins in assay [4] (30 s); 0.22 μg/mg proteins in assay [4] (60 s); 0.26 μg/mg proteins in assay [4] (90 s); 0.37 μg/mg proteins in assay [4] (120 s); 0.11 μg/mg proteins in assay [5] (30 s); 0.29 μg/mg proteins in assay [5] (60 s). Further, the “Capture of albumin-FITC” value is listed as 0.34 μg/mg proteins in assay [5] (90 s); 0.43 μg/mg proteins in assay [5] (120 s); 0.06 μg/mg of proteins in assay [6] (30 s); 0.11 μg/mg of proteins in assay [6] (60 s); 0.19 μg/mg of proteins in assay [6] (90 s); 0.3 μg/mg of proteins in assay [6] (120 s).
